Measurements reported in patent US7772408B1, “Substituted 5-alkoxypsoralens as inhibitors of potassium channel activity in lymphocytes and other cells” (The Regents of the University of California, priority 2002, dated 2010).
Where no end group is shown, it is not given here.

How the values were obtained:
Nav1.2 = target: T1, Nav1.2 (Mus musculus, UniProt B1AWN6); test: Whole-cell patch-clamp, sodium channel Nav1.2 (N1E-115); format: cell-based; conditions: ratio Kd Nav1.2/Kd Kv1.3
T1 construct: endogenous in cells

LogP determined by HPLC = format: physicochemical
Kv1.3 [1] = target: Kv1.3 (UniProt P16390); test: Whole-cell patch-clamp on a cell line stably expressing Kv1.3; format: cell-based; parameters: Kd Kv1.3; other: whole-cell patch-clamp, cell line stably expressing Kv1.3; Kd Kv1.3; mean ± S.D; Kd Kv1.3 (cloned); other: whole-cell patch-clamp, three to five concentrations, n = 3; conditions: whole-cell patch-clamp, cell line stably expressing Kv1.3; mean ± S.D.
Experimental: (§1) Electrophysiology. All experiments were conducted in the whole-cell configuration of the patch-clamp technique with a holding potential of −80 mV on a cell line stably expressing Kv1.3. Pipette resistances averaged 2.0 MΩ, and series resistance compensation of 80% was employed when currents exceeded 2 nA. Kv1.3 currents were elicited by repeated 200 ms or 2 sec pulses from −80 mV to 40 mV, applied at intervals of 30 or 60 s.

potassium channels = conditions: background statement; read-out: Kd, block of potassium channels; cited from earlier work
Kv1.3 [2] = target: Kv1.3 (UniProt P16390); test: Whole-cell patch-clamp on a cell line stably expressing Kv1.3; format: cell-based; conditions: FIG. 1A / 1B
Experimental: as §1

[3] = tested on: delayed-type hypersensitivity (DTH) response; conditions: mini-pigs, cited from earlier work

T1 sequence (B1AWN6 whole entry): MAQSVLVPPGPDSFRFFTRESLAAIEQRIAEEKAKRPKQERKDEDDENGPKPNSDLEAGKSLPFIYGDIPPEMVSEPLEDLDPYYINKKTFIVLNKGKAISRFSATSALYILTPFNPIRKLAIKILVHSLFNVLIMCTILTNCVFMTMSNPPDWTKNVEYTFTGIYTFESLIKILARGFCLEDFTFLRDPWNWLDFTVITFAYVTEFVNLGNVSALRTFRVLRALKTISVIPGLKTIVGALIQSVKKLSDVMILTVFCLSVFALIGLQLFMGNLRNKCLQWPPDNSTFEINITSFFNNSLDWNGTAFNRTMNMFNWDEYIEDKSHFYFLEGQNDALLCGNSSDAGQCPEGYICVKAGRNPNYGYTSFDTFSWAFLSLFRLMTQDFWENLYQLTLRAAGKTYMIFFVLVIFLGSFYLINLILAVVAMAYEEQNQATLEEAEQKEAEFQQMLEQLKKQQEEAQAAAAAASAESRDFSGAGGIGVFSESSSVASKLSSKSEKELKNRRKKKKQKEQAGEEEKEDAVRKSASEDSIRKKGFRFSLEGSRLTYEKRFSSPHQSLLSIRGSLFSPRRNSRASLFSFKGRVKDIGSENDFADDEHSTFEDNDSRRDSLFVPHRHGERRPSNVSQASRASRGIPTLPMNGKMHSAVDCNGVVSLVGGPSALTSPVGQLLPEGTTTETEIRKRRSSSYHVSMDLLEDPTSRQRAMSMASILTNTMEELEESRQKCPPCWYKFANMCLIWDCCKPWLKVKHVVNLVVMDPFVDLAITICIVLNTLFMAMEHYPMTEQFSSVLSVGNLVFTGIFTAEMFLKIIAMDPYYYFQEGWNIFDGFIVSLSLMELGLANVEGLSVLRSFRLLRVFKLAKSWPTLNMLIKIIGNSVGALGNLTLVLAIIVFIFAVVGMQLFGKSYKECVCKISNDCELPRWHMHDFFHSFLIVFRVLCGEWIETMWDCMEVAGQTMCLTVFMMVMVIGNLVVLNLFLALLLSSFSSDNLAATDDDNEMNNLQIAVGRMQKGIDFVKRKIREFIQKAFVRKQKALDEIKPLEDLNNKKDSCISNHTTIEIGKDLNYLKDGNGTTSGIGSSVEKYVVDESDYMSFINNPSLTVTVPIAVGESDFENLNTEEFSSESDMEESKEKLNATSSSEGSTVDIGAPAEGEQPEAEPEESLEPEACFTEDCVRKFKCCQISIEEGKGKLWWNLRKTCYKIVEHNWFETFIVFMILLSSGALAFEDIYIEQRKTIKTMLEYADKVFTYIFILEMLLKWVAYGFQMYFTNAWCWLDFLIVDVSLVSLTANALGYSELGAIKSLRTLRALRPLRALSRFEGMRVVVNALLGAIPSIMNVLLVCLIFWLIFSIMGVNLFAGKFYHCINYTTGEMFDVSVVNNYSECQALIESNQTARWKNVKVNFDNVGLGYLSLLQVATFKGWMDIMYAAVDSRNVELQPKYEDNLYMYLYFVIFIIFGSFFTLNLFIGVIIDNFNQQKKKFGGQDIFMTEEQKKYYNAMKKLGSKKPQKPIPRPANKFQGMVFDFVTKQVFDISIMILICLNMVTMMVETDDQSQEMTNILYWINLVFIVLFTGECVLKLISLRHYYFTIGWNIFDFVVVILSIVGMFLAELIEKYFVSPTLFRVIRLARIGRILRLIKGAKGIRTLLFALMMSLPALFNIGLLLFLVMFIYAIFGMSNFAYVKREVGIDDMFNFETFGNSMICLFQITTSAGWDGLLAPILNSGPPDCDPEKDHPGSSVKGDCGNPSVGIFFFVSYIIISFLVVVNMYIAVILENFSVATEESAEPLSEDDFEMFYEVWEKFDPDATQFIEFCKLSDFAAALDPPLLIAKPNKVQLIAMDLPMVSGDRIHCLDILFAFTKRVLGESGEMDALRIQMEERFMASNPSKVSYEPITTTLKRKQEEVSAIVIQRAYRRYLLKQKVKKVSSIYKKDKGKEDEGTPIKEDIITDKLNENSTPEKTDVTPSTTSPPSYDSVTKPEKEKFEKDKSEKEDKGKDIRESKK

| Molecule | S (selectivity over Nav1.2), S = Kd Nav1.2/Kd Kv1.3 (Nav1.2) | chromatographic logP (LogP determined by HPLC) | melting point | Kd (Kv1.3 [1]) | Kd (potassium channels) | inhibition of Kv1.3 current (Kv1.3 [2]) | suppression of primary DTH response [3] | suppression of secondary DTH response [3] |
| --- | --- | --- | --- | --- | --- | --- | --- | --- |
| O=c1ccc2c(OCc3ccccc3)c3ccoc3cc2o1 [5-BOP, 4-Benzyloxy-7H-furo[3,2-g][1]benzopyran-7-one] | 43 | 3.25 | 136 °C | 350 ± 72 nM |  |  |  |  |
| COc1c2ccoc2cc2oc(=O)ccc12 [5-MOP, 5-Methoxypsoralen] |  |  |  |  | 100000 nM |  |  |  |
| O=c1ccc2c(OCCc3ccccc3)c3ccoc3cc2o1 [J 09, 4-(2-Phenylethoxy)-7H-furo[3,2-g][1]benzopyran-7-one] | 41 | 3.55 | 154.5 °C | 169 ± 16 nM |  |  |  |  |
| CC(COc1c2ccoc2cc2oc(=O)ccc12)c1ccccc1 (stereo not drawn) [J 12, R,S-4-(2-Phenylpropoxy)-7H-furo[3,2-g][1]benzopyran-7-on] | 25 | 3.87 | 141.5 °C | 72 ± 12 nM |  |  |  |  |
| O=c1ccc2c(OCC3CCCCC3)c3ccoc3cc2o1 [J 14, 4-Cyclohexylmethoxy-7H-furo[3,2-g][1]benzopyran-7-on] | 48 | 4.41 | 153.5 °C | 138 ± 17 nM |  |  |  |  |
| O=c1ccc2c(OCCCc3ccccc3)c3ccoc3cc2o1 [J 15, 4-(3-Phenylpropoxy)-7H-furo[3,2-g][1]benzopyran-7-one] | 397 | 3.97 | 109 °C | 6.3 ± 1 nM |  | dose-dependent inhibition |  |  |
| O=c1ccc2c(OC/C=C/c3ccccc3)c3ccoc3cc2o1 [J 16, trans-4-(3-Phenyl-2-propenyloxy)-7H-furo[3,2-g][1]benzopyran-7-on] | 41 | 3.79 | 140 °C | 172 ± 37 nM |  |  |  |  |
| O=c1ccc2c(OC(c3ccccc3)c3ccccc3)c3ccoc3cc2o1 [J 17, 4-Diphenylmethoxy-7H-furo[3,2-g][1]benzopyran-7-on] | 38 | 4.12 | 173 °C | 68 ± 12 nM |  |  |  |  |
| O=c1ccc2c(OCCCCc3ccccc3)c3ccoc3cc2o1 [J 19 (Psora 4), 4-(4-Phenylbutoxy)-7H-furo[3,2-g][1]benzopyran-7-one] |  | 4.33 |  |  |  |  |  |  |
| O=c1ccc2c(OCc3ccc(-c4ccccc4)cc3)c3ccoc3cc2o1 [J 20, 5-Biphenylmethoxypsoralen] | 286 | 4.4 | 187 °C | 3.5 ± 0.5 nM |  |  |  |  |
| O=c1ccc2c(OCCCC3CCCCC3)c3ccoc3cc2o1 [J 21, 4-(3-Cyclohexylpropoxy)-7H-furo[3,2-g][1]benzopyran-7-on] | 8 | 5.34 | 115 °C | 144 ± 43 nM |  |  |  |  |
| O=c1ccc2c(OCCCCCc3ccccc3)c3ccoc3cc2o1 [J 22, 4-(5-Phenylpentoxy)-7H-furo[3,2-g][1]benzopyran-7-one] | 262 | 4.71 | 94.5 °C | 6.1 ± 0.7 nM |  |  |  |  |
| O=c1ccc2c(OCCC3CCCCC3)c3ccoc3cc2o1 [J 23, 4-(2-Cyclohexylethoxy)-7H-furo[3,2-g][1]benzopyran-7-on] | 11 | 4.82 | 117 °C | 132 ± 33 nM |  |  |  |  |
| C=C1C[C@@]2(O)[C@@H]3CC[C@@]4(C)[C@@H]5C=CC(=O)OC[C@]5(C(C)OC(C)=O)[C@@H](OC(C)=O)[C@@H](OC(C)=O)[C@@H]4[C@@]3(C)[C@H](OC(C)=O)[C@H](OC(C)=O)[C@@]2(C)C2(C(=O)OC)O[C@H]12 (stereo partly drawn) [correolide] |  |  |  |  |  |  | effectively suppress | much less effective |
| MgTX: Kv1.3 blocker (TIINVKCTSPKQCLPPCKAQFGQSAGAKCMNGKCKCYPH; ends and bridges not checked; cysteine pairing not given here; UniProt P40755 1-39, looked up) |  |  |  |  |  |  | effectively suppress | much less effective |
